# According to patent US7541366B2, “Pyrrolo[3,2-c]pyridine derivatives and processes for the preparation thereof” (YUHAN Corporation, priority 2004, dated 2009):
# Legend:
# [1] = system: basal gastric acid secretion; assay: Inhibitory effects on basal gastric acid secretion in pylorus-ligated rats (Shay's rat model); format: in vivo, Sprague Dawley (SD) rats; settings: oral, one hour before pylorus ligation, total acid output 5 hours after ligation, male SD rats
# Method: Test Example 2. Inhibitory effects on basal gastric acid secretion in pylorus-ligated rats. Inhibitory effects of the compounds of the present invention on basal gastric acid secretion were performed according to Shay's rat model (Shay, H., et al., 1945, gastroenterology, 5, 43-61). Male Sprague Dawley (SD) rats (200±10 g body weight) were divided into 3 groups (n=5) and fasted for 24 hours with free access to water. Control group was orally administered with 0.5% methylcellulose alone and the other groups were orally administered with test compounds suspended in 0.5% methyl-cellulose solution at doses of 1, 3 and 10 mg/kg/5 ml one hour before pylorus ligation. Under ether anesthesia, the abdomens of the rats were incised and then the pylorus was ligated. 5 hours after ligation, the animals were sacrificed, and the gastric contents were collected. The collected contents were centrifuged at 1,000×g for 10 minutes to obtain the gastric juice. Total acid output was measured by 0.01N NaOH volume (ueq/ml) for automatic titration of the gastric juice to pH 7.0 and the ED50s of test compounds were calculated using the Litchfield-Wilcoxon method. % inhibitory activity was calculated from the following equation and the results are shown in Table 2. %inhibitory activity of test compound=(total acid output of control group−total acid output of the group treated with test compounds)/total acid output of control group X 100
# [2] = molecular target: T1, proton pump (H+/K+-ATPase) (Sus scrofa, UniProt P19156); assay: Inhibitory effects on proton pump (H+/K+-ATPase) activity; format: biochemical; settings: hog gastric vesicles, K+ stimulated H+/K+-ATPase activity, Pi at 620 nm, 30 minutes at 37° C.
# T1 construct: used as an enzyme source of the in vitro enzyme reaction assay of proton pump; from tissue; host or cells: hog gastric fundic mucosa; membrane vesicles, lyophilized
# Method: 1-1. Preparation of gastric proton pump vesicles
# The hog fundic regions containing parietal and peptic cells were scraped with slide-glass. The collected cells were suspended in 10 ml of 0.25M sucrose buffer and homogenized using a tight-fitting Teflon-glass homogenizer. The homogenate was centrifuged for 35 min at 8,000 rpm and the pellet was discarded. The supernatant was further centrifuged for 75 min at 25,000 rpm. The resulting pellets were re-suspended in the sucrose buffer (10 ml), and then the suspension was laid onto discontinuous density gradients consisting of 0.25M sucrose buffer and isolation medium containing 9% Ficoll (w/w). After being centrifuged for 3 hours and 15 minutes at 100,000×g, the material at the interface of sucrose buffer and Ficoll solution was collected and then centrifuged for 40 minutes at 100,000×g. The resulting pellets were re-suspended in 1 ml of 5 mM Hepes/Tris buffer (pH 6.1). This material was lyophilized and stored at −70° C. and used as an enzyme source of the in vitro enzyme reaction assay of proton pump.
# 1-2. Measurement of inhibitory effects on proton pump (H^+/K^+-ATPase) activity
# The inhibitory effects of the compounds of the present invention against proton pump activity were evaluated in 96-well plate. In this assay, the K^+specific H^+/K^+-ATPase activity was calculated based on the difference between the activity of H^+/K^30 -ATPase activity with K^30 and without K^30 ion. In 96-well plate, 1% dimethylsulfoxide (DMSO) in buffer was added to negative and positive control groups and the diluted compounds of the present invention in buffer were added to test group. All assays were performed in 100μl reaction volume at room temperature, and the hog gastric vesicle was kept in ice before use. At the beginning of the reaction, 10μl of reaction buffer containing 1% DMSO was added to the negative and positive control groups and to reaction buffer each concentration of compounds in the test group. Then lyophilized vesicle in 5mM Pipes/Tris buffer (pH 6.1) was pre-incubated in the presence of various concentrations of test compounds. After a 5 minute incubation, negative and positive buffers were respectively added to the previous reaction mixture. As the substrate, ATP was added to the reaction buffer, and incubated for 30 minutes at 37° C. Enzymatic activity was stopped by the addition of colorimetric reagent (2X malachite green, 1X ammonium molybdate, X polyvinyl alcohol, 2X H2O) and the amount of mono phosphate (Pi) in the reaction was measured at 620nm using the micro plate reader (Genios Pro, TECAN). The difference between the Pi production with K^+and without K^+is taken as K^+stimulated H^+/K^+-ATPase activity. The IC50s of test compounds were calculated from each % inhibition value of compounds using the method of Litchfield-Wilcoxon (J. Pharmacol. Exp. Ther. (1949) 96, 99).
# [3] = molecular target: T2, hog gastric H+/K+-ATPase (Sus scrofa, UniProt P19156); assay: Reversible inhibition of hog gastric H+/K+-ATPase (Washout method); format: biochemical
# T2 construct: from tissue; host or cells: hog gastric fundic mucosa; gastric vesicles/microsomes, lyophilized
# Method: Gastric vesicles were prepared from hog fundic mucosa using the method of Saccomani et al. (Saccomani G, Stewart H B, Shqw D, Lewin M and Sachs G, Characterization of gastric mucosal membranes. IX. Fraction and purification of K-ATPase-containing vesicles by zonal centrifugation and free-flow electrophoresis techinque. Biochem. Biophy. Acta.(BBA)—Biomembranes 465, 311-330, 1977.). This material was lyophilized and stored at −70° C. The protein content of gastric vesicles was determined by the Bradford method using bovine serum albumin as a standard (Bradford M M, A rapid and sensitive method for the quantitation of microgram quantities of protein utilizing the principle of protein-dye binding. Anal Biochem. 72, 248-254, 1976).
# Activity of H^+/K^+-ATPase in hog microsome (lyophilized vesicle) was measured by the inorganic phosphate released from ATP using an one-step colorimetric detection method at the concentration at which the test compounds have 50% inhibition of the proton pump (Chan K M, Delfert D, and Junger K D, A direct colorimetric assay for Ca^2+-stimulated ATPase activity. Anal Biochem, 157, 375-380, 1986). […]
# T1 sequence (P19156 whole entry): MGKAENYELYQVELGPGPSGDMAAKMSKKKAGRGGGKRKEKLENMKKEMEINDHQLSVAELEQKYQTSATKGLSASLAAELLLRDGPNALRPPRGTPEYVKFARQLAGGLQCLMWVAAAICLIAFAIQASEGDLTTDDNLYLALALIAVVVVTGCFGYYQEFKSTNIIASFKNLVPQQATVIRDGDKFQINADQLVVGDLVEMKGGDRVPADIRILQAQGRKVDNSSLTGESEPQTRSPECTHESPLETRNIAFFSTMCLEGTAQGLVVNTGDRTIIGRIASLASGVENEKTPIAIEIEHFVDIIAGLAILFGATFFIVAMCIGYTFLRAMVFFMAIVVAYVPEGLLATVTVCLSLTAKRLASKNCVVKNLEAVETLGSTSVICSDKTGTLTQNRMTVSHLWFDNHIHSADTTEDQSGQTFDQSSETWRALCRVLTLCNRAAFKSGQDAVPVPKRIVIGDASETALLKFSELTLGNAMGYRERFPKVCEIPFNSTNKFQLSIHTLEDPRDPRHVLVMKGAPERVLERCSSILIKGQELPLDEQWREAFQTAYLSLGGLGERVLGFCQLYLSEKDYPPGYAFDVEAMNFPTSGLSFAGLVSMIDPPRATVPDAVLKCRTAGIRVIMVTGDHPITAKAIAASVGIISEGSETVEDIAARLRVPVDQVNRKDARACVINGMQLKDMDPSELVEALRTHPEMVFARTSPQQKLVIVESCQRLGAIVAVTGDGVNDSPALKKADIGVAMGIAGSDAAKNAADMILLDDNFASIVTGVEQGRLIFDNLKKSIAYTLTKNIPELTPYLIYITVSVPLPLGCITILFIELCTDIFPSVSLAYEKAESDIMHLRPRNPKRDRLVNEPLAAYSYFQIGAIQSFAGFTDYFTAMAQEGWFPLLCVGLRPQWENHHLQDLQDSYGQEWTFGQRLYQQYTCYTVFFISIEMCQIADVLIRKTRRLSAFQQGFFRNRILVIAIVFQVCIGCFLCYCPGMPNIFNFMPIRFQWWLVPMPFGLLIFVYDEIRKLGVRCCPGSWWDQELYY
# T1 sequence (P18434 whole entry partner): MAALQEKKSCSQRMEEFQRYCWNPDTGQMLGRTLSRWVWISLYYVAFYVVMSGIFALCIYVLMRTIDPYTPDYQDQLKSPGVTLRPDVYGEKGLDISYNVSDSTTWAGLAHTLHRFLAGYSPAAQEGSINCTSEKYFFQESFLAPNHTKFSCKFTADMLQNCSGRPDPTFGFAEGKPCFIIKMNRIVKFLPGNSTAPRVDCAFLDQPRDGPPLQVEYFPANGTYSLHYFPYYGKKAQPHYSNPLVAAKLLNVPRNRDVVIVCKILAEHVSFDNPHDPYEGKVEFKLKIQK
# T2 sequence (P19156 whole entry): as the sequence (P19156 whole entry) above
# T2 sequence (P18434 whole entry partner): as the sequence (P18434 whole entry partner) above
IC50 [2] [nM],"inhibition of H+/K+-ATPase activity after washout ([3]; after washout, compared with non-treated group)","inhibition of H+/K+-ATPase activity before washout ([3]; before washout, test compound at the concentration at which it has 50% inhibition) [%]",SMILES,ED50 [1] [mg/kg]
10,–,–,"Cc1c(C)n(Cc2ccccc2)c2c(OCc3ccc(F)cc3)cncc12.Cl [Example 12, 1-benzyl-7-(4-fluorobenzyloxy)-2,3-dimethyl-1H-pyrrolo[3,2-c]pyridine hydrochloride]",3.3
10,–,–,"CCCn1c(C)c(C)c2cncc(OCc3ccc(F)cc3)c21.Cl [Example 16, 7-(4-fluorobenzyloxy)-2,3-dimethyl-1-propyl-1H-pyrrolo[3,2-c]pyridine hydrochloride]",1.8
10,–,–,"COCCn1c(C)c(C)c2cncc(OCc3ccc(F)cc3)c21.Cl [Example 17, 7-(4-fluorobenzyloxy)-1-(2-methoxyethyl)-2,3-dimethyl-1H-pyrrolo[3,2-c]pyridine hydrochloride]",3.3
190,did not inhibit,50,"CCCn1c(C)c(C)c2cncc(N3CCc4ccccc4C3)c21.Cl [Example 38, 2-(2,3-dimethyl-1-propyl-1H-pyrrolo[3,2-c]pyridin-7-yl)-1,2,3,4-tetrahydroisoquinoline hydrochloride]",–
